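Following 48 hours of exposure in 96-well plates, responses at five concentrations were used to interpolate endpoints linearly. The concentration for 50% growth inhibition is given as GI50. The concentration for full growth arrest is given as TGI.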
Legend:
Experiment in all cases: inhibition of tumour cell growth, NCI panel, 48 h
[1] = system: SF-295 CNS
[2] = system: T-47D breast
[3] = system: UACC-257 melanoma
[4] = system: DU-145 prostate
[5] = system: UO-31 renal
[6] = system: KM12 colon
[7] = system: K-562 leukemia
[8] = system: BT-549 breast
[9] = system: HS 578T breast
[10] = system: A498 renal

| SMILES | TGI [1] | TGI [2] | TGI [3] | TGI [4] | TGI [5] | TGI [6] | TGI [7] | TGI [8] | TGI [9] | TGI [10] | GI50 [1] | GI50 [2] | GI50 [9] | GI50 [3] | GI50 [4] | GI50 [5] | GI50 [6] | GI50 [7] | GI50 [8] | GI50 [10] |
| --- | --- | --- | --- | --- | --- | --- | --- | --- | --- | --- | --- | --- | --- | --- | --- | --- | --- | --- | --- | --- |
| CC(=O)NC(C)(C)C1CCC(C)=C(c2ccccc2)C1 (stereo not given) | > 100 µM | > 100 µM | > 100 µM | > 100 µM | > 100 µM | > 100 µM | > 100 µM | > 100 µM | – | – | – | – | – | – | – | – | – | – | – | – |
| Cc1cccc(C2SCc3nc4ccccc4n32)c1 (stereo not given) | > 100 µM | – | – | – | – | 79.8 µM | > 100 µM | – | – | – | – | – | – | – | – | – | – | – | – | – |
| CCOC(=O)Oc1cc2c(c(OC)c1OC)-c1ccc(OC)c(=O)cc1C(NC(C)=O)CC2 (stereo not given) | 3.09 µM | > 100 µM | > 100 µM | – | > 100 µM | 1.68 µM | > 81.3 µM | > 100 µM | > 100 µM | 3.38 µM | – | – | – | – | – | – | – | – | – | – |
| COC(=O)C1=C(O)[C@H](C(=O)OC)C2(O)C(C(=O)OC)[C@H](c3ccc(OC(=O)C(C)c4ccc(CC(C)C)cc4)cc3)C[C@@H]1[C@@H]2C(=O)OC (stereo not given in full) | > 50 µM | > 50 µM | > 50 µM | 9.58 µM | > 50 µM | > 50 µM | > 50 µM | 3.68 µM | > 50 µM | – | > 50 µM | 12.3 µM | 33 µM | 27.2 µM | 0.804 µM | 12.3 µM | 40.3 µM | 0.695 µM | 1.03 µM | – |
| CCOC(=O)C(=O)CC1=Nc2ccccc2SC(c2cccc(C)c2)C1 (stereo not given) | – | – | 33.2 µM | – | 28.7 µM | 30.9 µM | 57.6 µM | – | – | 33 µM | – | – | – | – | – | – | – | – | – | – |
| COC(=O)N/N=C(\C)c1c(O)cc(C)oc1=O | > 100 µM | – | > 100 µM | – | > 100 µM | > 100 µM | 97.7 µM | – | – | > 100 µM | – | – | – | – | – | – | – | – | – | – |
| CCOP(=O)(OCC)C1CCCOC1=O (stereo not given) | > 100 µM | – | > 100 µM | – | > 100 µM | > 100 µM | > 100 µM | – | – | > 100 µM | – | – | – | – | – | – | – | – | – | – |
| COc1ccc(Cc2coc3ccccc3c2=O)cc1OC | > 100 µM | > 100 µM | > 100 µM | > 100 µM | > 100 µM | – | > 100 µM | > 100 µM | > 100 µM | – | – | – | – | – | – | – | – | – | – | – |
| O=C([CH-]C(=O)c1ccccc1)c1ccccc1.[CH-]1CCCCC1.[CH-]1CCCCC1.[CH-]1CCCCC1.[Sn+4] | 22.1 µM | – | 19.2 µM | – | 25 µM | 24.2 µM | 6.15 µM | – | – | 28.9 µM | 8.1 µM | – | – | 4.29 µM | – | 12.5 µM | 10.8 µM | 2.31 µM | – | 15.4 µM |
| O=[N+]([O-])C(/C=N/Nc1ccccc1)/C=N/Nc1ccccc1 | > 100 µM | – | > 100 µM | – | > 100 µM | > 100 µM | > 100 µM | – | – | > 100 µM | – | – | – | – | – | – | – | – | – | – |
| COCN1COCN=C1NC#N | > 100 µM | – | > 100 µM | – | > 100 µM | > 100 µM | > 100 µM | – | – | > 100 µM | – | – | – | – | – | – | – | – | – | – |
| O=C1N2Cc3c4ccc5c3CN3C(=O)N6Cc7c(ccc(c7CN1C6(c1ccccc1)C23c1ccccc1)OCCOCCNCCOCCO4)OCCOCCNCCOCCO5 (stereo not given) | > 100 µM | – | 69 µM | – | > 100 µM | > 100 µM | > 100 µM | – | – | > 100 µM | – | – | – | – | – | – | – | – | – | – |
| O=c1[nH]c2ccccc2nc1/C=C(\O)c1ccccc1O | > 100 µM | – | > 100 µM | – | > 100 µM | > 100 µM | > 100 µM | – | – | > 100 µM | – | – | – | – | – | – | – | – | – | – |
| O=C(CC1OC(O)C(Cl)=C1Cl)c1cccnc1 (stereo not given) | > 100 µM | – | > 100 µM | – | > 100 µM | > 100 µM | > 100 µM | – | – | > 100 µM | – | – | – | – | – | – | – | – | – | – |
| CN(C)CCNC(=O)c1cccc2cc3c(Cl)cccc3nc12 | – | – | 3.99 µM | – | > 28.7 µM | 7.28 µM | 4.04 µM | – | – | 3.21 µM | – | – | – | – | – | – | – | – | – | – |
| ClC/C=C/COC1CCCCO1 (stereo not given) | > 100 µM | – | > 100 µM | – | > 100 µM | > 100 µM | > 100 µM | – | – | > 100 µM | – | – | – | – | – | – | – | – | – | – |
| Cc1cccc(C)c1NC(=O)C1=NC(=S)NC(c2ccccc2)C1c1nc2ccccc2s1 (stereo not given) | > 100 µM | – | > 100 µM | – | > 100 µM | > 100 µM | > 100 µM | – | – | > 100 µM | – | – | – | – | – | – | – | – | – | – |
| O=C(/C=C/c1ccccc1F)c1ccc(Cl)c(Cl)c1 | > 100 µM | – | > 100 µM | – | > 100 µM | 45 µM | 48.4 µM | – | – | > 59.3 µM | – | – | – | – | – | – | – | – | – | – |
| O=C1CC(c2cccc(F)c2)Nc2cc3c(cc21)OCO3 (stereo not given) | > 100 µM | > 100 µM | > 100 µM | > 100 µM | > 100 µM | – | > 100 µM | – | > 100 µM | > 100 µM | < 0.01 µM | – | – | < 0.01 µM | < 0.01 µM | < 0.01 µM | – | – | – | – |
| CC1=C(c2ccccc2)C(O)(c2ccccc2)C(C)C1=O (stereo not given) | 62.6 µM | > 100 µM | > 100 µM | > 100 µM | > 100 µM | > 100 µM | > 100 µM | 55.4 µM | – | – | 12.7 µM | 23.1 µM | – | 55 µM | 27.2 µM | 13.2 µM | 7.52 µM | 4.71 µM | 14.6 µM | – |
| O=C1C(c2ccc(Br)cc2)=[N+]([O-])c2ccccc21 | – | – | 24.7 µM | – | 38.7 µM | 30.4 µM | 33.5 µM | – | – | 56.1 µM | – | – | – | – | – | – | – | – | – | – |
| O=[N+]([O-])C=C(c1ccc(Cl)cc1)c1ccc(Cl)cc1 | 32.8 µM | – | 36.9 µM | – | 27.2 µM | 30.1 µM | 50.2 µM | – | – | 36.2 µM | – | – | – | – | – | – | – | – | – | – |
| COc1ccc2c(c1)c(-c1nc(-c3c[nH]c4ccncc34)cs1)cn2C | 3.13 µM | – | 3.09 µM | 3.25 µM | 2.97 µM | 3.2 µM | 2.47 µM | 3.45 µM | 4.02 µM | 3.09 µM | 1.69 µM | – | 2.03 µM | 1.68 µM | 1.75 µM | 1.58 µM | 1.73 µM | 0.716 µM | 1.81 µM | 1.65 µM |
| CC(=O)[O-].Cn1ccnc1CNCc1nccn1C.[Cu+2].[O-][Cl+3]([O-])([O-])[O-] | > 100 µM | – | – | – | – | > 100 µM | > 100 µM | – | – | – | 96.9 µM | – | – | – | – | – | > 100 µM | > 100 µM | – | – |
| COc1ccc(CN2c3ccccc3Sc3ccccc32)c(C(F)(F)F)c1 | 2.67 µM | – | – | > 100 µM | > 100 µM | – | > 100 µM | 31.9 µM | > 100 µM | > 100 µM | 0.32 µM | – | 0.877 µM | – | 2.08 µM | 3.98 µM | – | 0.395 µM | 3.12 µM | 0.372 µM |

From PubChem BioAssay (NCI)
